From paper PMC7471006, “A Simplified Quantitative Real-Time PCR Assay for Monitoring SARS-CoV-2 Growth in Cell Culture” (mSphere, 2020) come the findings set out here.

SMILES strings stand for the structures. Like-named read-outs stand apart in the source and are kept apart here.

Data set [1] deals with SARS-CoV-2. Description: SYBR green-based qRT-PCR of SARS-CoV-2 RNA in supernatants of infected Vero E6 cells (compound screen). The format is cell-based. Conditions: for Effect on SARS-CoV-2 viral RNA in supernatants / SARS-CoV-2 replication: MOI 0.01, 24 hpi, result in words; for IC50: Severe acute respiratory syndrome coronavirus 2, Vero C1008, MOI 0.01, 24 hpi, read-out: IC50 (50% inhibitory concentration), SARS-CoV-2 viral RNA in supernatants. In general terms: In qPCR the cycle at which signal appears reflects the starting amount.

Data set [2] has as its system Vero E6 cells.
Data set [3] has as its system Vero E6 cells. Description: RealTime-Glo MT cell viability assay (compound cytotoxicity). Conditions: parallel plates, result in words.

Consider `Cc1nc2ccc(Br)cc2c(-c2ccc(Cl)cc2)c1C(OC(C)(C)C)C(=O)O` (stereo not shown) [ALLINI-2], for which the “Effect on SARS-CoV-2 viral RNA in supernatants / SARS-CoV-2 replication” value in data set [1] is “modestly inhibited”. The Compound cytotoxicity entry in data set [2] was “without apparent cytotoxicity”.

Turning to `CCN(c1nc(N)c(C(=O)NC(=N)N)nc1Cl)C(C)C` [EIPA, ethylisopropylamiloride], the “Effect on SARS-CoV-2 viral RNA in supernatants / SARS-CoV-2 replication” value in data set [1] is “substantially decreased viral RNA in supernatants at subcytotoxic levels”.

As to `CC(C)CN(C[C@@H](O)[C@H](Cc1ccccc1)NC(=O)O[C@H]1CCOC1)S(=O)(=O)c1ccc(N)cc1` [amprenavir], the “Effect on SARS-CoV-2 viral RNA in supernatants / SARS-CoV-2 replication” value in data set [1] is given as “modestly inhibited”. Moreover, the Compound cytotoxicity entry in data set [3] is recorded as “without apparent cytotoxicity”.

As for `Cc1cccc(/C=N/Nc2cc(N3CCOCC3)nc(OCCc3ccccn3)n2)c1` [apilimod], the “Potency on SARS-CoV-2 viral RNA in supernatants compared with 24 hpi” value in data set [1] (48 hpi, data not shown) was “less potent”. Also, in data set [1], the “Effect on SARS-CoV-2 viral RNA in supernatants / SARS-CoV-2 replication” value was “substantially decreased” and the IC50 worked out at 12 nM. Moreover, the Compound cytotoxicity entry in data set [2] is recorded as “minimal cytotoxicity”.

For `Cc1ccnc2c1NC(=O)c1cccnc1N2C1CC1` [nevirapine], the “Effect on SARS-CoV-2 viral RNA in supernatants / SARS-CoV-2 replication” value in data set [1] is “modestly inhibited”. Further, the Compound cytotoxicity result in data set [3] is “without apparent cytotoxicity”.

On to `CCC(CC)COC(=O)[C@H](C)N[P@](=O)(OC[C@H]1O[C@@](C#N)(c2ccc3c(N)ncnn23)[C@H](O)[C@@H]1O)Oc1ccccc1` [remdesivir], for which, in data set [1], the “Effect on SARS-CoV-2 viral RNA in supernatants / SARS-CoV-2 replication” value was “substantially decreased” and the IC50 worked out at 2.8 µg/mL.
